Data on 10 molecules can be found in ChEMBL document CHEMBL1145395, “De novo design of selective antibiotic peptides by incorporation of unnatural amino acids” (J Med Chem, 2007).

Converted amounts (≈) assume the structure as drawn. The source made the active and inactive calls. The calls are words filed in the database; no cut-off is given here. Starred links: 1 amine or outer side, 2 acyl side, 3 side chain; linkers in the order of their positions; H or OH if unused. Non-standard residues stand in square brackets, D forms with d. Residues, ends and D or L forms follow the SMILES beside them. ξ: configuration not given here. Pro(3ξ,4ξ-(CH2)4) = O=C(O)[C@H]1NCC2CCCCC21; Oic = O=C(O)[C@@H]1C[C@@H]2CCCC[C@@H]2N1; Ethylenediamine = C(CN[*:2])N[*:1]; Tic = O=C(O)[C@@H]1Cc2ccccc2CN1

One data set has as its system Salmonella typhimurium. As to the kind of experiment: Antibacterial activity against Salmonella Typhimurium ATCC 13311. It is filed as functional, Salmonella enterica subsp. enterica serovar Typhimurium. Conditions: for MIC: Salmonella enterica; for Activity: Salmonella enterica subsp. enterica serovar Typhimurium.
A further data set deals with Staphylococcus aureus. The data set can be described thus: Antibacterial activity against methicillin/gentamicin/tetracycline resistant Staphylococcus aureus ATCC 33592. It is filed as functional.
The test system of the next data set is Mycobacterium. As to the kind of experiment: Antibacterial activity against Mycobacterium ranae ATCC 110. Format: functional.
Another data set concerns Bacillus subtilis. The data set can be described thus: Antibacterial activity against Bacillus subtilis ATCC 43223. Format: functional.
Data set [1] is described as follows: Toxicity to mouse RBC assessed as hemolytic activity at 100 uM. It is filed as cell-based, Erythrocyte. As to conditions: red blood cells, read-out: Activity.

The MIC is the lowest concentration found to suppress growth. On to `CC(=O)NCC(=O)N[C@@H](Cc1ccccc1)C(=O)N[C@@H](Cc1ccccc1)C(=O)N1CC2CCCCC2[C@H]1C(=O)NCC(=O)N[C@@H](CCCCN)C(=O)N[C@@H](Cc1ccccc1)C(=O)N1CC2CCCCC2[C@H]1C(=O)NCC(=O)N[C@@H](Cc1ccccc1)C(=O)N[C@@H](Cc1ccccc1)C(=O)N1CC2CCCCC2[C@H]1C(=O)NCC(=O)N[C@@H](CCCCN)C(=O)N[C@@H](Cc1ccccc1)C(=O)N[C@@H](CCCCN)C(=O)N[C@@H](CCCCN)C(=O)N[C@@H](CCCCN)C(=O)N[C@@H](CCCCN)C(N)=O` (some centres undefined) (Ac-GFF[Pro(3ξ,4ξ-(CH2)4)]GKF[Pro(3ξ,4ξ-(CH2)4)]GFF[Pro(3ξ,4ξ-(CH2)4)]GKFKKKK-NH2), for which the minimum inhibitory concentration (MIC) in the data set with Salmonella typhimurium is 10 µM (≈ 23.9 µg/mL); in the data set on Staphylococcus aureus, 10 µM (≈ 23.9 µg/mL); against Mycobacterium it was 10 µM (≈ 23.9 µg/mL); in the data set on Bacillus subtilis it was 3 µM (≈ 7.18 µg/mL).

Consider `CC(=O)NCC(=O)N[C@@H](Cc1ccccc1)C(=O)NCC(=O)N1CC2CCCCC2[C@H]1C(=O)NCC(=O)N[C@@H](CCCCN)C(=O)NCC(=O)N1CC2CCCCC2[C@H]1C(=O)NCC(=O)N[C@@H](Cc1ccccc1)C(=O)NCC(=O)N1CC2CCCCC2[C@H]1C(=O)NCC(=O)N[C@@H](CCCCN)C(=O)NCC(=O)N[C@@H](CCCCN)C(=O)N[C@@H](CCCCN)C(=O)N[C@@H](CCCCN)C(=O)N[C@@H](CCCCN)C(N)=O` (some centres undefined) (Ac-GFG[Pro(3ξ,4ξ-(CH2)4)]GKG[Pro(3ξ,4ξ-(CH2)4)]GFG[Pro(3ξ,4ξ-(CH2)4)]GKGKKKK-NH2), for which the results for the minimal inhibitory concentration (MIC) against Staphylococcus aureus, with Mycobacterium and against Bacillus subtilis were 3 µM (≈ 6.1 µg/mL), 100 µM (≈ 203 µg/mL) and 30 µM (≈ 61 µg/mL), respectively.

As for `CC(=O)NCC(=O)N[C@@H](Cc1ccccc1)C(=O)N1CC2CCCCC2[C@H]1C(=O)NCC(=O)N[C@@H](CCCCN)C(=O)N1CC2CCCCC2[C@H]1C(=O)NCC(=O)N[C@@H](Cc1ccccc1)C(=O)N1CC2CCCCC2[C@H]1C(=O)NCC(=O)N[C@@H](CCCCN)C(=O)N[C@@H](CCCCN)C(=O)N[C@@H](CCCCN)C(=O)N[C@@H](CCCCN)C(=O)N[C@@H](CCCCN)C(N)=O` (some centres undefined) (Ac-GF[Pro(3ξ,4ξ-(CH2)4)]GK[Pro(3ξ,4ξ-(CH2)4)]GF[Pro(3ξ,4ξ-(CH2)4)]GKKKKK-NH2), the results for the minimum inhibitory concentration (MIC) against Salmonella typhimurium, in the data set on Mycobacterium and against Bacillus subtilis were 100 µM (≈ 180 µg/mL), 100 µM (≈ 180 µg/mL) and 3 µM (≈ 5.41 µg/mL), respectively.

As for `CC(=O)NCC(=O)N[C@@H](Cc1ccccc1)C(=O)N1Cc2ccccc2C[C@H]1C(=O)N1[C@H](C(=O)NCC(=O)N[C@@H](CCCCN)C(=O)N2Cc3ccccc3C[C@H]2C(=O)N2[C@H](C(=O)NCC(=O)N[C@@H](Cc3ccccc3)C(=O)N3Cc4ccccc4C[C@H]3C(=O)N3[C@H](C(=O)NCC(=O)N[C@@H](CCCCN)C(=O)N4Cc5ccccc5C[C@H]4C(=O)N[C@@H](CCCCN)C(=O)N[C@@H](CCCCN)C(=O)N[C@@H](CCCCN)C(=O)N[C@@H](CCCCN)C(=O)NCCN)C[C@@H]4CCCC[C@@H]43)C[C@@H]3CCCC[C@@H]32)C[C@@H]2CCCC[C@@H]21` (Ac-GF[Tic][Oic]GK[Tic][Oic]GF[Tic][Oic]GK[Tic]KKKK-Ethylenediamine), the MIC is 10 µM (≈ 24.8 µg/mL) in the data set with Salmonella typhimurium, 3 µM (≈ 7.45 µg/mL) against Staphylococcus aureus, 10 µM (≈ 24.8 µg/mL) in the data set with Mycobacterium and 1 µM (≈ 2.48 µg/mL) against Bacillus subtilis.

Turning to `CSCC[C@H](NC(=O)[C@H](CC(C)C)NC(=O)[C@H](CCC(=O)O)NC(=O)[C@@H]1C2CCCCC2CN1C(=O)[C@@H]1Cc2ccccc2CN1C(=O)[C@H](CCCCN)NC(=O)CNC(=O)[C@H](CC(C)C)NC(=O)[C@H](CCCCN)NC(=O)CNC(=O)[C@@H]1C2CCCCC2CN1C(=O)[C@@H]1Cc2ccccc2CN1C(=O)[C@H](CO)NC(=O)[C@H](CC(N)=O)NC(=O)[C@H](CCSC)NC(=O)[C@H](CC(C)C)NC(=O)[C@@H](N)CCC(=O)O)C(=O)N[C@@H](CO)C(N)=O` (some centres undefined) (H-ELMNS[Tic][Pro(3ξ,4ξ-(CH2)4)]GKLGK[Tic][Pro(3ξ,4ξ-(CH2)4)]ELMS-NH2), the result in the data set on Salmonella typhimurium and in the data set with Staphylococcus aureus was inactive. Further, the hemolysis at 100 µM in data set [1] worked out at 23%.

On to `CSCC[C@H](NC(=O)[C@H](CC(C)C)NC(=O)[C@H](CCC(=O)O)NC(=O)[C@@H]1C2CCCCC2CN1C(=O)[C@@H]1Cc2ccccc2CN1C(=O)[C@H](CCCCN)NC(=O)CNC(=O)[C@@H]1C2CCCCC2CN1C(=O)[C@@H]1Cc2ccccc2CN1C(=O)[C@H](CC(C)C)NC(=O)CNC(=O)[C@@H]1C2CCCCC2CN1C(=O)[C@@H]1Cc2ccccc2CN1C(=O)[C@H](CCCCN)NC(=O)CNC(=O)[C@@H]1C2CCCCC2CN1C(=O)[C@@H]1Cc2ccccc2CN1C(=O)[C@H](CC(C)C)NC(=O)CNC(=O)[C@@H]1C2CCCCC2CN1C(=O)[C@@H]1Cc2ccccc2CN1C(=O)[C@H](CO)NC(=O)[C@H](CC(N)=O)NC(=O)[C@H](CCSC)NC(=O)[C@H](CC(C)C)NC(=O)[C@@H](N)CCC(=O)O)C(=O)N[C@@H](CC(N)=O)C(=O)N[C@@H](CO)C(N)=O` (some centres undefined) (H-ELMNS[Tic][Pro(3ξ,4ξ-(CH2)4)]GL[Tic][Pro(3ξ,4ξ-(CH2)4)]GK[Tic][Pro(3ξ,4ξ-(CH2)4)]GL[Tic][Pro(3ξ,4ξ-(CH2)4)]GK[Tic][Pro(3ξ,4ξ-(CH2)4)]ELMNS-NH2), for which the outcome in the data set with Salmonella typhimurium and in the data set with Staphylococcus aureus was inactive. For the same molecule, in data set [1], the hemolysis at 100 µM is 3%.

Turning to `CC(C)C[C@H](NC(=O)CNC(=O)[C@H](CCCCN)NC(=O)CN)C(=O)N1Cc2ccccc2C[C@H]1C(=O)N1[C@H](C(=O)NCC(=O)N[C@@H](CCCNC(=N)N)C(=O)N2Cc3ccccc3C[C@H]2C(=O)N2[C@H](C(=O)NCC(=O)N[C@@H](Cc3ccccc3)C(=O)N3Cc4ccccc4C[C@H]3C(=O)N3[C@H](C(=O)NCC(=O)N[C@@H](CCCNC(=N)N)C(=O)N4Cc5ccccc5C[C@H]4C(=O)N4[C@H](C(=O)NCC(=O)N[C@@H](Cc5ccccc5)C(=O)N5Cc6ccccc6C[C@H]5C(=O)N5[C@H](C(=O)NCC(=O)N[C@@H](CCCNC(=N)N)C(=O)N6Cc7ccccc7C[C@H]6C(=O)N6[C@H](C(=O)NCC(=O)N[C@@H](CCCCN)C(=O)N[C@@H](CCCNC(=N)N)C(N)=O)C[C@@H]7CCCC[C@@H]76)C[C@@H]6CCCC[C@@H]65)C[C@@H]5CCCC[C@@H]54)C[C@@H]4CCCC[C@@H]43)C[C@@H]3CCCC[C@@H]32)C[C@@H]2CCCC[C@@H]21` (H-GKGL[Tic][Oic]GR[Tic][Oic]GF[Tic][Oic]GR[Tic][Oic]GF[Tic][Oic]GR[Tic][Oic]GKR-NH2), the minimal inhibitory concentration (MIC) was 100 µM (≈ 362 µg/mL) against Salmonella typhimurium and 1 µM (≈ 3.62 µg/mL) in the data set with Bacillus subtilis.

Take `CC(C)C[C@H](NC(=O)CNC(=O)[C@H](CCCCN)NC(=O)CN)C(=O)N1Cc2ccccc2C[C@H]1C(=O)N1CC2CCCCC2[C@H]1C(=O)N[C@@H](Cc1ccccc1)C(=O)N[C@@H](CCCCN)C(=O)N1Cc2ccccc2C[C@H]1C(=O)N1CC2CCCCC2[C@H]1C(=O)N[C@@H](CCCCN)C(=O)N[C@@H](Cc1ccccc1)C(=O)N1Cc2ccccc2C[C@H]1C(=O)N1CC2CCCCC2[C@H]1C(=O)N[C@@H](Cc1ccccc1)C(=O)N[C@@H](CCCCN)C(=O)N1Cc2ccccc2C[C@H]1C(=O)N1CC2CCCCC2[C@H]1C(=O)N[C@@H](CCCCN)C(=O)N[C@@H](Cc1ccccc1)C(=O)N1Cc2ccccc2C[C@H]1C(=O)N1CC2CCCCC2[C@H]1C(=O)N[C@@H](Cc1ccccc1)C(=O)N[C@@H](CCCCN)C(=O)N1Cc2ccccc2C[C@H]1C(=O)N1CC2CCCCC2[C@H]1C(=O)N[C@@H](Cc1ccccc1)C(=O)N[C@@H](CCCCN)C(=O)N[C@@H](CCCNC(=N)N)C(N)=O` (some centres undefined) (H-GKGL[Tic][Pro(3ξ,4ξ-(CH2)4)]FK[Tic][Pro(3ξ,4ξ-(CH2)4)]KF[Tic][Pro(3ξ,4ξ-(CH2)4)]FK[Tic][Pro(3ξ,4ξ-(CH2)4)]KF[Tic][Pro(3ξ,4ξ-(CH2)4)]FK[Tic][Pro(3ξ,4ξ-(CH2)4)]FKR-NH2): the figures for the minimum inhibitory concentration (MIC) in the data set with Salmonella typhimurium, against Staphylococcus aureus and against Bacillus subtilis were 100 µM (≈ 404 µg/mL), 30 µM (≈ 121 µg/mL) and 3 µM (≈ 12.1 µg/mL), respectively.

Turning to `CC(C)C[C@H](NC(=O)CNC(=O)[C@H](CCCCN)NC(=O)CN)C(=O)N1Cc2ccccc2C[C@H]1C(=O)N1CC2CCCCC2[C@H]1C(=O)NCC(=O)N[C@@H](CCCCN)C(=O)N1Cc2ccccc2C[C@H]1C(=O)N1CC2CCCCC2[C@H]1C(=O)NCC(=O)N[C@@H](CC(C)C)C(=O)N1Cc2ccccc2C[C@H]1C(=O)N1CC2CCCCC2[C@H]1C(=O)NCC(=O)N[C@@H](CCCCN)C(=O)N1Cc2ccccc2C[C@H]1C(=O)N1CC2CCCCC2[C@H]1C(=O)NCC(=O)N[C@@H](CC(C)C)C(=O)N1Cc2ccccc2C[C@H]1C(=O)N1CC2CCCCC2[C@H]1C(=O)NCC(=O)N[C@@H](CCCCN)C(=O)N1Cc2ccccc2C[C@H]1C(=O)N1CC2CCCCC2[C@H]1C(=O)NCC(=O)N[C@@H](CCCCN)C(=O)N[C@@H](CCCNC(=N)N)C(N)=O` (some centres undefined) (H-GKGL[Tic][Pro(3ξ,4ξ-(CH2)4)]GK[Tic][Pro(3ξ,4ξ-(CH2)4)]GL[Tic][Pro(3ξ,4ξ-(CH2)4)]GK[Tic][Pro(3ξ,4ξ-(CH2)4)]GL[Tic][Pro(3ξ,4ξ-(CH2)4)]GK[Tic][Pro(3ξ,4ξ-(CH2)4)]GKR-NH2), the hemolysis at 100 µM in data set [1] stood at 100%.

Consider `CC(C)C[C@H](NC(=O)CNC(=O)[C@H](CCCCN)NC(=O)CN)C(=O)N1Cc2ccccc2C[C@H]1C(=O)N1CC2CCCCC2[C@H]1C(=O)NCC(=O)N[C@@H](CC(C)C)C(=O)N1Cc2ccccc2C[C@H]1C(=O)N1CC2CCCCC2[C@H]1C(=O)NCC(=O)N[C@@H](CCCCN)C(=O)N1Cc2ccccc2C[C@H]1C(=O)N1CC2CCCCC2[C@H]1C(=O)NCC(=O)N[C@@H](CC(C)C)C(=O)N1Cc2ccccc2C[C@H]1C(=O)N1CC2CCCCC2[C@H]1C(=O)NCC(=O)N[C@@H](CCCCN)C(=O)N1Cc2ccccc2C[C@H]1C(=O)N1CC2CCCCC2[C@H]1C(=O)NCC(=O)N[C@@H](CC(C)C)C(=O)N1Cc2ccccc2C[C@H]1C(=O)N1CC2CCCCC2[C@H]1C(=O)NCC(=O)N[C@@H](CCCCN)C(=O)N[C@@H](CCCNC(=N)N)C(N)=O` (some centres undefined) (H-GKGL[Tic][Pro(3ξ,4ξ-(CH2)4)]GL[Tic][Pro(3ξ,4ξ-(CH2)4)]GK[Tic][Pro(3ξ,4ξ-(CH2)4)]GL[Tic][Pro(3ξ,4ξ-(CH2)4)]GK[Tic][Pro(3ξ,4ξ-(CH2)4)]GL[Tic][Pro(3ξ,4ξ-(CH2)4)]GKR-NH2), for which, in the data set with Salmonella typhimurium, the result was inactive. In the data set on Staphylococcus aureus, this molecule registered an MIC of 100 µM (≈ 346 µg/mL). Moreover, the hemolysis at 100 µM in data set [1] was 100%.
